System: HIV-IIIb
Assay: Test A: Antiviral Assays in MT4 Cells
Assay type: cell-based
Conditions: MT-4 cells infected with HIV-IIIb, 5 days incubation, CellTiter-Glo readout
Description: The antiviral properties of a compound disclosed herein may be determined using Test A described below.
Test A: Antiviral Assays in MT4 Cells
For the antiviral assay utilizing MT-4 cells, 0.4 μL of […] test concentration of 3-fold serially diluted compound in DMSO was added to 40 μL of cell growth medium (RPMI 1640, 10% FBS, 1% penicillin/Streptomycin, 1% L-Glutamine, 1% HEPES) in each well of 384-well assay plates (10 concentrations) in quadruplicate.
1 mL aliquots of 2×10e6 MT-4 cells are pre-infected for 1 and 3 hrs respectively, @ 37° C. with 25 μL (MT4) or of either cell growth medium (mock-infected) or a fresh 1:250 dilution of an HIV-IIIb concentrated ABI stock (0.004 m.o.i. for MT4 cells). Infected and uninfected cells are diluted in cell growth medium and 35 μL of 2000 (for MT4) cells is added to each well of the assay plates.
Assay plates were then incubated in a 37° C. incubator. After 5 days of incubation, 25 μl of 2× concentrated CellTiter-Glo™ Reagent (catalog # G7573, Promega Biosciences, Inc., Madison, Wis.) was added to each well of the assay plate. Cell lysis was carried out by incubating at room temperature for 2-3 min and then chemiluminescence was read using the Envision reader (PerkinElmer).

[1] = Human immunodeficiency virus 1, IIIB, MT4, 120 h, Table II

EC50 [1] | EC50 (Table II) | SMILES | further results
– | 1.66 µM | CC(C)(C)O[C@H](C(=O)O)c1c2c(c3ccccc3c1-c1ccc3c4c(ccnc14)CCO3)CCC2 (atropisomer, axis not shown) [Example 33] | –
– | 0.06 µM | CC(C)(C)O[C@H](C(=O)O)c1c2c(c3ccccc3c1-c1ccc3c4c(ccnc14)CCO3)CCC2 (atropisomer, axis not shown) [Example 34] | –
0.0432 µM | – | COc1c(C)c([C@H](OC(C)(C)C)C(=O)O)c(-c2ccc3c4c(ccnc24)CCO3)c2ccccc12 (atropisomer, axis not shown) [Example 82] | –
0.0149 µM | – | Cc1c([C@H](OC(C)(C)C)C(=O)O)c(-c2ccc3c4c(ccnc24)CCO3)c2ccccc2c1O (atropisomer, axis not shown) [Example 83] | –

The next lines start with the molecule.

SMILES | EC50 [1] | EC50 (Table II) | further results
COc1ncc(-c2ccc3c(-c4ccc5c6c(ccnc46)CCO5)c([C@H](OC(C)(C)C)C(=O)O)c(C)cc3c2)c(OC)n1 (atropisomer, axis not shown) [Example 49] | 0.0138 µM | – | –
Cc1cc2c(C)c(-c3cncnc3)ccc2c(-c2ccc3c4c(ccnc24)CCO3)c1[C@H](OC(C)(C)C)C(=O)O (atropisomer, axis not shown) [Example 81] | – | 3.37 µM | –
Cc1cc2cc(-c3cncnc3)ccc2c(-c2ccc3c4c(ccnc24)CCO3)c1[C@H](OC(C)(C)C)C(=O)O (atropisomer, axis not shown) [Example 66] | 0.00988 µM | – | –
CC(C)(C)O[C@H](C(=O)O)c1c(-c2ccc3c4c(ccnc24)CCO3)c2ccccc2c2ccccc12 (atropisomer, axis not shown) [Example 24, (S)-2-tert-Butoxy-2-((R)-10-(2,3-dihydropyrano[4,3,2-de]quinolin-7-yl)phenanthren-9-yl)acetic acid] | – | – | EC50 (Human immunodeficiency virus 1, IIIB, MT4, 120 h, Table I): 0.109 µM
